Measurements as given in PMC10030075 (Medicinal Chemistry Research, 2023).

Columns and labels:
in vitro [1] = settings: human, microsomes, pH 7.4
in vitro [2] = settings: human, microsomes, pH 7.4; remark: listed apart in the source
HBV = test: Preliminary screening of anti-HBV activity; assay type: cell-based, hepatitis B virus; settings: inhibition of HBsAg and HBeAg expression, HepG2.2.15 cells
duck hepatitis B virus = settings: in vivo; cited from earlier work
hepatic fibrosis = settings: 50 mg/kg or 100 mg/kg, by increasing phospho-FOXO1 expression; cited from earlier work
Newcastle disease virus = settings: cited from earlier work

Row | SMILES | half-life (in vitro [1]) [h] | half-life (in vitro [2]) [h] | anti-HBV activity (in words) (HBV) | levels of HBsAg and HBeAg in duck serum (duck hepatitis B virus) | hepatic fibrosis (hepatic fibrosis) | Newcastle disease virus replication (Newcastle disease virus)
1 | Cc1nccn1CCCCCCOc1cc2oc(=O)ccc2cc1O [Compound 6d, 6-Hydroxyl-7-(6-(2-methylimidazole-1-yl)hexyloxy)-2H-benzopyran-2-one] | > 5 | > 5 | – | – | – | –
2 | Cc1nccn1CCCCOc1cc2oc(=O)ccc2cc1O [Compound 6b, 6-Hydroxyl-7-(4-(2-methylimidazole-1-yl)butoxy)-2H-benzopyran-2-one] | > 5 | > 5 | moderate anti-HBV activity | – | – | –
3 | O=c1ccc2ccc(O)cc2o1 [7-hydroxycoumarin, reference compound] | – | 0.263 | – | – | – | –
4 | O=c1ccc2cc(O)c(O)cc2o1 [Esculetin, 6,7-dihydroxy-2-H-1-benzopyran-2-one] | – | – | – | can reduce the levels of HBsAg and hepatitis B e antigen (HBeAg) in duck serum | improvement in hepatic fibrosis | inhibited Newcastle disease virus replication well
5 | C[C@]12CC[C@H]3[C@@H](CCC4=CC(=O)CC[C@@]43C)[C@@H]1CC[C@@H]2O [testosterone, reference compound] | 0.4 | – | – | – | – | –
6 | Cc1nccn1CCCCCOc1cc2oc(=O)ccc2cc1O [Compound 6c, 6-Hydroxyl-7-(5-(2-methylimidazole-1-yl)pentyloxy)-2H-benzopyran-2-one] | > 5 | > 5 | moderate anti-HBV activity | – | – | –
